Results as given in patent US20250318997A1, “COMPOSITIONS AND METHODS FOR PREVENTING DENTAL CARIES” (THE TRUSTEES OF THE UNIVERSITY OF PENNSYLVANIA, priority 2022, published 2025).

Tests used:
[1] = TMB colorimetric assay for peroxidase-like (catalytic) activity / ROS; conditions: for effect of the salt on the catalytic activity of Fer: salt 20 (or 30) μg/ml, Fer 20 μg of Fe/ml, pH 4.5, FIGS. 4A-4C
Description: To explore whether SnF2 could produce ROS, the 3,3′,5,5′-tetramethylbenzidine (TMB) colorimetric assay was used for peroxidase-like activity following a previously published protocol, with some modifications. TMB is a chromogenic compound that yields a blue color upon oxidation with an absorption peak at 652 nm in the presence of H2O2.
ROS measurement using 3,3′,5,5′-tetramethylbenzidine (TMB) assay: The catalytic activity of Fer+SnF2 was investigated by a colorimetric assay using TMB (Sigma-Aldrich) as a probe, which generates a blue color in the presence of H2O2 after reacting with ROS. Briefly, the stock solution of TMB was made in DMF (25 mg/ml). Fer (0.5 mg of Fe/ml) and SnF2 (0.5 mg/ml, Sigma-Aldrich) were incubated (separately or combined) at room temperature in 0.1 M of sodium acetate buffer (pH 4.5) for 1 h. Afterward, 40 μl of the testing sample (Fer, SnF2, or Fer+SnF2) and 4 μl of TMB (100 μg) were added into 922 μl of 0.1 M sodium acetate buffer (pH 4.5), and absorbance was recorded at 652 nm. Then, 34 μl of H2O2 (1%, v/v) was added. After 10 min additional incubation in the dark, catalytic activities was monitored at 652 nm. For the control, 40 μl of the buffer solution was taken instead of the testing sample. To examine the effect of DMSO, a quencher of hydroxyl radical (·OH), various amounts of DMSO (0-10%) were used. The effect of pH on the catalytic activity of the combined treatment of Fer+SnF2 was determined at three different pH values (4.5, 5.5, and 6.5), as described above. The comparison of the catalytic activity of Fer+NaF and Fer+SnF2 was also conducted using the same protocol as described above, except after adding H2O2, the reaction mixture was incubated only for 5 min.
Subsequently, 40 μl of the combined mixture of Fer (20 μg of Fe) and BaF2 (20 or 30 μg) and 4 μl of TMB (100 μg) were mixed into 922 μl of 0.1 M sodium acetate buffer (pH 4.5). Afterward, H2O2 (1%) was added. Finally, the absorbance of TMB was monitored at 652 nm after 5 min of incubation. In a similar way, the catalytic activity of SnCl2 (final concentration 20 μg/ml, Sigma-Aldrich) was also investigated. The effect of incubation time on the catalytic activity was investigated after incubating Fer and SnF2 for a predetermined time.
Additionally, the catalytic activity of the released iron and nanoparticle pellet was investigated at pH 4.5 via TMB assay.

[2] = Stability of SnF2 in aqueous solution / sodium acetate buffer (photographs, UV-vis); conditions: SnF2 alone, 0.1 M sodium acetate buffer pH 5.5; FIG. 2B
Description: It is noteworthy that SnF2 has limited stability in aqueous solutions owing to its high susceptibility to hydrolysis and oxidation, requiring chemical additives (e.g., chelating agents) or water removal, which can reduce fluoride bioavailability. […] To further investigate the stability of SnF2 in the presence of Fer, SnF2 (250 ppm of F) was mixed with increasing amounts of Fer in 0.1 M sodium acetate buffer at different pH values.
The peak at 4.0-4.2 ppm (denoted as “a”) is attributed to the protons of the carboxymethyl moieties, as determined previously. […] Note that similar ^1H NMR studies of SnF2 and Fer are not possible due to the superparamagnetic nature of Fer interfering with ^1H NMR measurements.
The Fer formulation also contains mannitol, which is an antioxidant. Since antioxidants can prevent the oxidation of SnF2, SnF2 was added to various amounts of mannitol (1-10 mg/ml).

S. mutans biofilm = assay: In vitro biofilm model on saliva-coated hydroxyapatite disc: viable cells (CFU) and biomass (dry weight); type: cell-based, Streptococcus mutans UA159
Description: Antibiofilm activity was evaluated using different concentrations of Fer and SnF2 in the presence of H2O2 using the saliva-coated hydroxyapatite disc (tooth enamel mimic) model in the presence of sucrose. Initially, Fer (1 mg of Fe/ml) was mixed with various concentrations of SnF2 (0-250 ppm of F), and the number of viable cells and biomass were determined.
Biofilms were formed using the saliva-coated hydroxyapatite disc (sHA) model as described elsewhere. Streptococcus mutans UA159, a proven virulent and well-characterized cariogenic pathogen, were grown in ultra-filtered (10 kDa, cutoff; Millipore, Billerica, MA) tryptone-yeast extract (UFTYE) broth at 37° C. and 5% CO2 to mid-exponential phase. Briefly, HA discs (surface area of 2.7±0.2 cm^2; Clarkson Chromatography Inc., South Williamsport, PA) were vertically suspended in 24-well plates using a custom-made wire disc holder and coated with filter-sterilized human saliva for 1 h at 37° C. Each sHA disc was inoculated with ˜2×10^5 CFU of S. mutans per ml in UFTYE containing 1% sucrose at 37° C. and 5% CO2. Topical treatment of Fer and SnF2 or vehicle control was performed twice daily for 10 min at 0, 6, 19, and 29 h. The culture medium was changed twice daily (at 19 h and 29 h). At the end of the experimental period (43 h), the biofilms were placed in 2.8 ml of H2O2 (1%, v/v) for 5 min. After H2O2 exposure, the biofilms were removed and homogenized via bath sonication followed by probe sonication (at an output of 7 W for 30 s). The homogenized suspension was serially diluted and plated onto blood agar plates using an automated EddyJet Spiral Plater (IUL, SA, Barcelona, Spain). The numbers of viable cells in each biofilm were calculated by counting CFU. The remaining suspension was centrifuged at 5500 g for 10 min, the resulting cell pellets were then washed, oven-dried, and weighed. SnF2 and NaF treatment groups were performed according to the same procedure.

[3] = Hydroxyl radical production by PL using coumarin; conditions: pH 4.5, H2O2; FIGS. 3F, 15
Description: Comparison of hydroxyl radical (·OH) production: ·OH generated by Fer and Fer+SnF2 in 0.1 M sodium acetate buffer (pH 4.5) was compared by PL technique using coumarin (Sigma-Aldrich) as a ·OH trapping molecule. First, stock solution of Fer (0.5 mg of Fe/ml) with or without SnF2 (0.5 mg/ml) was incubated in 0.1 M sodium acetate buffer (pH 4.5) for 1 h. Afterward, Fer (20 μg of Fe/ml) with or without SnF2 (20 μg/ml) was mixed with coumarin (0.1 mM) in a 10 mm path length cuvette, and then H2O2 (1%, v/v) was added to the reaction mixture to initiate the reaction. The PL intensity was recorded at 452 nm at different incubation times with an excitation wavelength of 332 nm. For the control, all the experimental conditions were the same, except that the testing samples were not used.

[4] = Stability of Fer/SnF2 with citric acid after 1 month at room temperature (photographs, hydrodynamic diameter); type: physicochemical
Description: FIG. 21 provides photographs of Fer+SnF2 when mixed with various amounts of citric acid after 1 month incubation at room temperature.

[Ba+2].[F-].[F-] [BaF2, barium fluoride]
effect of the salt on the catalytic activity of Fer [1]: Neither NaF nor BaF2 increased the catalytic activity of Fer

[F-].[Na+] [NaF, sodium fluoride]
effect of the salt on the catalytic activity of Fer [1]: Neither NaF nor BaF2 increased the catalytic activity of Fer

[Cl][Sn][Cl] [SnCl2]
effect of the salt on the catalytic activity of Fer [1]: enhanced the catalytic activity of Fer

[F][Sn][F] [SnF2, stannous fluoride]
appearance of SnF2 solution [2]: Immediate aggregation
growth of S. mutans (bacterial viability) (S. mutans biofilm; 1000 ppm of F, compared with NaF, FIG. 9A): significantly inhibit the growth of S. mutans
biomass (S. mutans biofilm; 1000 ppm of F, compared with NaF, FIG. 9B): reduce biomass
biomass (S. mutans biofilm; SnF2 250 ppm of F alone, FIG. 1D): substantially reduce biomass
ROS production / catalytic activity (TMB absorption at 652 nm) ([1]; pH 4.5, H2O2, FIGS. 3A, 3B): did not produce a noticeable amount of ROS
effect of post-mixed SnF2 on the catalytic activity of Fer ([1]; post-mixed, not pre-mixed and incubated, FIG. 20): reduced the catalytic activity of Fer
·OH production (PL intensity of 7-hydroxycoumarin at 452 nm) [3]: did not produce a noticeable amount of ·OH

O=C(O)CC(O)(CC(=O)O)C(=O)O [citric acid]
amount of citric acid that improves the stability of the Fer/SnF2 formulation [4]: ≥ 125 µg/mL
